Key:
melanoma cells = conditions: studies of Vujic et al., 2015; cited from earlier work
[1] = tested on: cortical neurons from WT and Hdh^CAG/+ mice; experiment: BDNF-mCherry axonal transport in corticostriatal network on microfluidic device; type: cell-based, mouse
Method: Referring to FIG. 3A, the inventors have reproduced the corticostriatal network in vitro on a microfluidic device consisting of two neuronal chambers that are connected via microchannels. Experiments are performed over a period of time ranging from 2 to 12 days in vitro (Days in vitro), i.e. DIV2 to DIV12, and a fixation/acquisition at DIV12.
For striatal StHdh cells, acute treatment was performed at 10 μM for 1 hour before and during the acquisition time. For neurons within the microchambers, treatments were started at DIV2 until DIV12 every day at 1 μM in each compartment of the microfluidic device.
The inventors then investigated whether ML-348 is able to restore dysfunctions of the corticostriatal network in Huntington's disease. Indeed, corticostriatal circuit is particularly altered in Huntington's disease, which manifests itself by a dysfunction and a degeneration of both the striatal neurons and their corticostriatal afferences. They developed a microfluidic-based approach that enables the reconstruction of a time- and space-controlled neuronal network compatible with fast spinning confocal videomicroscopy. This system uses a silicon polymer-based microfluidic device composed of two fluidically-isolated neuronal chambers that are connected via a set of thin microchannels through which neurites can grow and contact each other in an intermediate synaptic compartment. Using primary neuron cultures, they reconstituted a corticostriatal network in which cortical neurons project to striatal target neurons through oriented axodendritic connections (FIG. 3A). These devices are compatible with drug treatment and therefore can be used to test pharmacological agents in vitro on this functional circuit.
Cortical neurons from WT and Hdh^CAG/+ mice were infected with BDNF-mCherry lentivirus and acquisitions were performed at Day 12 in the distal part of the long microchannels to analyze axonal transport of BDNF (FIG. 3B). As expected, defects in axonal transport in HD (Huntington's disease) neurons were identified for both the anterograde and retrograde transport velocities, and also in the number of vesicles travelling along the microtubules (FIG. 3C-3E). These effects lead to a reduction of the linear net flux with no impact one the directionality of the vesicles (FIGS. 3F and 3G).

[2] = Hdh^CAG/+ network, 1 μM daily DIV2 to DIV12

Question: With `O=C(CN1CCN(C(=O)c2ccco2)CC1)Nc1cc(C(F)(F)F)ccc1Cl` [ML-348] as the compound, how does the “effect on melanoma cells” value (melanoma cells) read?
Answer: Its value is “no biologically significant effect”.

Question: And the “anterograde and retrograde transport velocities of BDNF-mCherry” value [1, 2]?
Answer: Its value is “restored to values approximately equal to those of the wild type”.

Question: And the “linear net flow of BDNF-mCherry vesicles” value [1, 2]?
Answer: The value was “restored to values approximately equal to those of the wild type”.

Question: What about the “number of anterograde and retrograde vesicles moving over 100 μm for 30 seconds” value [1, 2] of the same compound?
Answer: The value was “restored to values approximately equal to those of the wild type”.

Question: What about the “effect on BDNF trafficking in WT neurons” value ([1]; WT neurons, 1 μM daily) of the same compound?
Answer: Its value is “inhibitory effect on BDNF trafficking”.
